Measured values reported in US20230257396A1, “MACROCYCLES AND THEIR USE” (BLOSSOMHILL THERAPEUTICS, INC., priority 2020, published 2023).

Legend:
Assay in all cases: KINOMEscan kinase binding assay (Eurofins/DiscoveRx), % Ctrl
kinases [1] = target: T1, kinases (Homo sapiens, UniProt P00533); details: 1 μM; EGFR
T1 construct: purchased Eurofins/DiscoveRx; host or cells: E. coli BL21-derived host (T7 phage display) for most kinases; HEK-293 for the rest
How it was run: (§1)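 Competition binding: DNA- or phage-tagged kinases (T7 phage in E. coli BL21, or HEK-293-expressed) with immobilized biotinylated ligand beads and test compound, 1 h at room temperature. Bead-bound kinase eluted and quantified by qPCR; % Ctrl = (compound − positive control)/(negative control − positive control) ×100 at a single compound concentration.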

kinases [2] = details: 1 μM
How it was run: as §1

kinases [3] = target: T2, kinases (Homo sapiens, UniProt P00533, L858R); details: 1 μM; EGFR(L858R)
T2 construct: purchased Eurofins/DiscoveRx; host or cells: E. coli BL21-derived host (T7 phage display) for most kinases; HEK-293 for the rest
How it was run: as §1

kinases [4] = target: T3, kinases (Homo sapiens, UniProt P00519, Y253F); details: 1 μM; ABL1(Y253F)-phosphorylated
T3 construct: purchased Eurofins/DiscoveRx; host or cells: E. coli BL21-derived host (T7 phage display) for most kinases; HEK-293 for the rest
How it was run: as §1

kinases [5] = target: T4, kinases (Homo sapiens, UniProt P00533, T790M); details: 1 μM; EGFR(T790M)
T4 construct: purchased Eurofins/DiscoveRx; host or cells: E. coli BL21-derived host (T7 phage display) for most kinases; HEK-293 for the rest
How it was run: as §1

kinases [6] = target: T5, kinases (Homo sapiens, UniProt P10721, A829P); details: 1 μM; KIT(A829P)
T5 construct: purchased Eurofins/DiscoveRx; host or cells: E. coli BL21-derived host (T7 phage display) for most kinases; HEK-293 for the rest
T5 sequence (P10721 26-976 A829P): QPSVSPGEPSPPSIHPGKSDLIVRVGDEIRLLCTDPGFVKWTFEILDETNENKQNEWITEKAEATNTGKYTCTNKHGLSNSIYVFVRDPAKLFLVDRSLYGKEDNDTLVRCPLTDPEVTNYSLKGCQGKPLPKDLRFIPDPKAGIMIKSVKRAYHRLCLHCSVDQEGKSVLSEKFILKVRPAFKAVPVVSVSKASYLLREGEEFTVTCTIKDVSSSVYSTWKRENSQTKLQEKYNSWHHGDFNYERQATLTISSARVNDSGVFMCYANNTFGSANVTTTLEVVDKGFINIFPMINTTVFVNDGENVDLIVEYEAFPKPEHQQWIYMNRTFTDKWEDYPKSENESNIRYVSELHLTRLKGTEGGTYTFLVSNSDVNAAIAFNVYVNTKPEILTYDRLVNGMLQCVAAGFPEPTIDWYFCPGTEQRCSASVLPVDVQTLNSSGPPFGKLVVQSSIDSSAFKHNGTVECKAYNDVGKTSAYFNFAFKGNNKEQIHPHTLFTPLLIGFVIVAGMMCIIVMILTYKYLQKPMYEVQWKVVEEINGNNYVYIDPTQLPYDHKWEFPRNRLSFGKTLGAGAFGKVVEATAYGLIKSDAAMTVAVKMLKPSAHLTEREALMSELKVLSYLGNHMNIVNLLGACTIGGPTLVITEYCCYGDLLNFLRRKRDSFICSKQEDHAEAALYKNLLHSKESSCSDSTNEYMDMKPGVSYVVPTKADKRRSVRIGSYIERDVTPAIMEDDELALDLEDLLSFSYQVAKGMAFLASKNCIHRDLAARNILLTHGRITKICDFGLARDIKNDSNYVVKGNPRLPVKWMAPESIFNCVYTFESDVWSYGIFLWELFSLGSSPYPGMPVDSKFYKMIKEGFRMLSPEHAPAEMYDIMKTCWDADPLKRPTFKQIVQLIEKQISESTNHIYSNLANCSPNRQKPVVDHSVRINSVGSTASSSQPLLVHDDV
How it was run: as §1

Compound	% Ctrl, EGFR (kinases [1]) [% Ctrl]	% Ctrl, EGFR(L747-E749del, A750P) (kinases [2]) [% Ctrl]	% Ctrl, EGFR(L747-S752del, P753S) (kinases [2]) [% Ctrl]	% Ctrl, EGFR(L747-T751del, Sins) (kinases [2]) [% Ctrl]	% Ctrl, FLT3(ITD) (kinases [2]) [% Ctrl]	% Ctrl, FLT3(ITD, D835V) (kinases [2]) [% Ctrl]	% Ctrl, FLT3(ITD, F691L) (kinases [2]) [% Ctrl]	% Ctrl, EGFR(L858R) (kinases [3]) [% Ctrl]	% Ctrl, ABL1(Y253F)-phosphorylated (kinases [4]) [% Ctrl]	% Ctrl, EGFR(T790M) (kinases [5]) [% Ctrl]	% Ctrl, KIT(A829P) (kinases [6]) [% Ctrl]
Cc1cc2c([nH]1)/C=C1\C(=O)Nc3ccc(cc31)O[C@@H](C)COCCN(C)C2=O [Ex. 92, [10S,16a(17)Z]-2,5,10-trimethyl-6,7,9,10-tetrahydro-1H-12,14-(ethanediylidene)dipyrrolo[3,2-i:3′,4′-l][1,4,7]dioxazacyclopentadecine-4,16(5H,15H)-dione]	98	91	55	98	45	8.3	9.2	98	54	100	100
Cc1cc2c([nH]1)/C=C1\C(=O)Nc3ccc(cc31)-c1cnn(C)c1COCCN(C)C2=O [Ex. 124, [3a(4)Z]-6,9,14-trimethyl-10,11,13,14-tetrahydro-2H-1,17-(ethanediylidene)pyrazolo[4,3-m]dipyrrolo[3,2-f:3′,4′-i][1,4]oxazacyclopentadecine-3,8(5H,9H)-dione]	50	25	37	57	0	0	0.65	58	0	8.5	4.3
Cc1cc2c([nH]1)/C=C1\C(=O)Nc3ccc(cc31)-c1cnn(C)c1CNCCN(C)C2=O [Ex. 125, [3a(4)Z]-6,9,14-trimethyl-9,10,11,12,13,14-hexahydro-1,17-(ethanediylidene)pyrazolo[4,3-m]dipyrrolo[3,2-f:3′,4′-i][1,4]diazacyclopentadecine-3,8(2H,5H)-dione]	61	22	48	54	0	0	0	48	0	11	2.6
Cc1cc2c([nH]1)/C=C1\C(=O)Nc3ccc(cc31)-c1cnn(C)c1CN(C)CCN(C)C2=O [Ex. 126, [3a(4)Z]-6,9,12,14-tetramethyl-9,10,11,12,13,14-hexahydro-1,17-(ethanediylidene)pyrazolo[4,3-m]dipyrrolo[3,2-f:3′,4′-i][1,4]diazacyclopentadecine-3,8(2H,5H)-dione]	23	1.8	14	27	0.4	0	2.5	31	0.25	1.6	0
Cc1cc2c([nH]1)/C=C1\C(=O)Nc3ccc(cc31)-c1c(C)n[nH]c1CNCCN(C)C2=O [Ex. 127, [3a(4)Z]-6,9,16-trimethyl-9,10,11,12,13,14-hexahydro-1,17-(ethanediylidene)pyrazolo[4,3-m]dipyrrolo[3,2-f:3′,4′-i][1,4]diazacyclopentadecine-3,8(2H,5H)-dione]	42	26	40	43	2.2	0	6.2	47	0	9.2	60
Cc1cc2c([nH]1)/C=C1\C(=O)Nc3ccc(cc31)-c1c(noc1C)COCCN(C)C2=O [Ex. 128, [3a(4)Z]-6,9,16-trimethyl-1,11-dihydro-2H,13H-1,17-(ethanediylidene)[1,4]oxazolo[4,3-m]dipyrrolo[3,2-f:3′,4′-i][1,4]oxazacyclopentadecine-3,8(5H,9H)-dione]	91	85	93	94	43	5.8	10	88	49	75	86
Cc1cc2c([nH]1)/C=C1\C(=O)Nc3ccc(cc31)OCCOCCNC2=O [Ex. 129, [16a(17)Z]-2-methyl-6,7,9,10-tetrahydro-1H-12,14-(ethanediylidene)dipyrrolo[3,2-i:3′,4′-l][1,4,7]dioxazacyclopentadecine-4,16(5H,15H)-dione]	98	88	98	85	32	4.3	40	100	98	100	100
Cc1cc2c([nH]1)/C=C1\C(=O)Nc3cc(Cl)c(cc31)OCCOCCN(C)C2=O [Ex. 131, [16a(17)Z]-19-chloro-2,5-dimethyl-6,7,9,10-tetrahydro-1H-12,14-(ethanediylidene)dipyrrolo[3,2-i:3′,4′-l][1,4,7]dioxazacyclopentadecine-4,16(5H,15H)-dione]	52	31	50	59	0.85	0	0.6	56	0	61	4
Cc1cc2c([nH]1)/C=C1\C(=O)Nc3cc(Cl)c(cc31)OCCO[C@@H](C(=O)NC1CNC1)CN(C)C2=O [Ex. 133, [7R,16a(17)Z]-N-(azetidin-3-yl)-19-chloro-2,5-dimethyl-4,16-dioxo-4,5,6,7,9,10,15,16-octahydro-1H-12,14-(ethanediylidene)dipyrrolo[3,2-i:3′,4′-l][1,4,7]dioxazacyclopentadecine-7-carboxamide]	99	100	100	100	26	2.8	5.6	95	57	98	54
